Test results taken from patent US8557832B2, “Aryl methyl benzoquinazolinine M1 receptor positive allosteric modulators” (Merck Sharp & Dohme Corp., priority 2008, dated 2013).

What follows are compounds tested against T1, acetylcholine muscarinic M1 receptor (Homo sapiens, UniProt P11229) (assay: muscarinic FLIPR assay: potentiation of acetylcholine (EC20)-stimulated intracellular Ca2+ in CHOnfat/hM1 cells). Details: 4 min preincubation, then EC20 acetylcholine (3 nM final), read-out: IP Value (inflection point).
T1 construct: expressed in transfected cells; host or cells: CHOnfat (CHO cells; also called CHOK1/hM1)
T1 sequence (P11229 1-460): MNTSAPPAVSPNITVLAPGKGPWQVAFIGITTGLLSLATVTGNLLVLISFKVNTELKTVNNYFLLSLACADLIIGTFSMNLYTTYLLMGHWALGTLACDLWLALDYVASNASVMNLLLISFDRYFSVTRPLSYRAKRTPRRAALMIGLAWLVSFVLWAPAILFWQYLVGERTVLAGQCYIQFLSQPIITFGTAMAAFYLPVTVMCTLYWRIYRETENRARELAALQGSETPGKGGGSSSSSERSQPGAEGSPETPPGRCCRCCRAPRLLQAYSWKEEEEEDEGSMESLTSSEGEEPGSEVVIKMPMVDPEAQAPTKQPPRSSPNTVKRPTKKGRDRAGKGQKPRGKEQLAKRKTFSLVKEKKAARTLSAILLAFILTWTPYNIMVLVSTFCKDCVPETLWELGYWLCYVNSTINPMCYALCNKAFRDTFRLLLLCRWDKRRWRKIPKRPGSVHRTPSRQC
Type: cell-based
Description: The assay studies the effect of one or several concentrations of test compounds on basal or acetylcholine-stimulated Ca^2+ levels using FLIPR.
Compounds are prepared and subjected to a preincubation period of 4 min. Thereafter, a single EC20 concentration of acetylcholine is added to each well (3 nM final). The intracellular Ca^2+ level of each sample is measured and compared to an acetylcholine control to determine any modulatory activity.
Cells: CHOnfat/hM1, hM2, hM3 or hM4 cells are plated 24 hr before the assay at a density of 18,000 cells/well (100 μL) in a 384 well plate. CHOnfat/hM1 and CHOnfat/hM3 Growth Medium: 90% DMEM (Hi Glucose); 10% HI FBS; 2 mM L-glutamine; 0.1 mM NEAA; Pen-Strep; and 1 mg/ml Geneticin, are added. For M2Gqi5CHOnfat and M4Gqi5CHOnfat cells, an additional 600 ug/ml hygromycin is added.
Equipment: 384 well plate, 120 μL addition plate; 96-well Whatman 2 ml Uniplate Incubator, 37° C., 5% CO2; Skatron EMBLA-384 Plate Washer; Multimek Pipetting System; Genesis Freedom 200 System; Mosquito System; Temo Nanoliter Pipetting System; and FLIPR^384 Fluorometric Imaging Plate Reader System are used.
Buffers. Assay Buffer: Hanks Balanced Salt Solution, with 20 mM Hepes, 2.5 mM Probenecid (Sigma P-8761) first dissolved in 1 N NaOH, 1% Bovine Serum Albumin (Sigma A-9647). Dye Loading Buffer: Assay Buffer plus 1% Fetal Bovine Serum and Fluo-4AM/Pluronic Acid Mixture. 2 mM Fluo-4AM ester stock in DMSO (Molecular Probes F-14202) Concentration of 2 μM in buffer for a final concentration of 1 μM in Assay. 20% Pluronic Acid Solution stock, with concentration of 0.04% in Buffer, 0.02% in Assay.
65 μL of 2 mM Fluo-4AM are mixed with 130 μL of 20% Pluronic Acid. The resulting solution and 650 μL FBS is added to the assay buffer for a total volume of 65 mL. Positive Controls: 4-Br-A23187: 10 mM in DMSO; final concentration 10 μM. Acetylcholine: 10 mM in water, working stock at both 20 μM and 30 μM in assay buffer, final concentration of 10 μM. This is used to check the maximum stimulation of the CHOK1/hM1 cells. 20 μM (2×) acetylcholine is added in the preincubation part of the assay, and the 30 μM (3×) stock is added in the second part. (EC20) Acetylcholine: 10 mM in water, working stock of 9 nM (3×), and final concentration in assay is 3 nM. This is used after the preincubation with test compounds. Addition of the EC20 Acetylcholine to each well with a test compound will ascertain any modulator activity. 24 wells contain 3 nM Acetylcholine alone as a control.
Determining Activity of Putative Compounds:
Screening Plate: Compounds are titrated in 96-well plates (columns 2-11), 100% DMSO, started at a concentration of 15 mM (150× stock concentration), and 3-fold serial dilutions using Genesis Freedom200 System. Four 96-well plates are combined into a 384-well plate using Mosquito Nanolitre Pipetting System by transferring 1 μl of serial diluted compounds to each well, and 1 mM acetylcholine (100× stock concentration) were added as a control. Using Temo, 49 μl assay buffer is added to each well of the 384-well plate right before assay.
In a 96-well Whatman 2 ml Uniplate, 9 nM Acetylcholine (3×) is pipetted into wells corresponding to the screening compounds, and into control wells. The 30 μM acetylcholine control (3×) is added into control wells, and the 3× agonist plate is transferred into a 384 well plate.
Cells are washed three times with 100 μL of buffer, leaving 30 μL of buffer in each well. Using Multimek, 30 μL of Dye Loading Buffer is added into each well and incubated at 37° C., 5% CO2 for up to one hr.
After 60 min, the cells are washed three times with 100 μL of buffer, leaving 30 μL of buffer in each well. The cell plate, screening plate, and agonist addition plates are placed on the platform in the FLIPR and the door closed. A signal test to check background fluorescence and basal fluorescence signal is performed. Laser intensity is adjusted if necessary. […]

Row | Compound | EC50
1 | Cc1ccc(Cc2cc3c(=O)n([C@H]4CCCC[C@@H]4O)cnc3c3ccccc23)cn1 (racemic) [Example 1, rac-3-[trans-2-hydroxycyclohexyl]-6-[(6-methylpyridin-3-yl)methyl]benzo[h]quinazolin-4(3H)-one] | 51 nM
2 | O=c1c2cc(Cc3ccc(-n4cccn4)nc3)c3ccccc3c2ncn1[C@H]1CCCC[C@@H]1O (racemic) [Example 6, rac-3-[trans-2-hydroxycyclohexyl]-6-{[6-(1H-pyrazol-1-yl)pyridin-3-yl]methyl}benzo[h]quinazolin-4(3H)-one] | 31 nM
3 | COc1ccc(Cc2cc3c(=O)n(-c4cccnc4)cnc3c3ccccc23)cc1 [Example 4, 6-(4-methoxybenzyl)-3-pyridin-3-ylbenzo[h]quinazolin-4(3H)-one] | 3500 nM
4 | CC(=O)N[C@H]1CCCC[C@@H]1n1cnc2c(cc(Cc3ccc(Cl)nc3)c3ccccc32)c1=O [Example 12, N-{(1S,2S)-2-[6-[(6-chloropyridin-3-yl)methyl]-4-oxobenzo[h]quinazolin-3(4H)-yl]cyclohexyl}acetamide] | > 10000 nM
5 | Cc1ccc(Cc2cc3c(=O)n([C@H]4CCCC[C@@H]4O)cnc3c3ccccc23)cn1 [Example 2, 3-[(1S,2S)-2-hydroxycyclohexyl]-6-[(6-methylpyridin-3-yl)methyl]benzo[h]quinazolin-4(3H)-one] | 21 nM
6 | Cc1nc2c(cc(Cc3ccc(Cl)nc3)c3ccccc32)c(=O)n1[C@H]1CCCC[C@@H]1O [Example 19, 6-[(6-chloropyridin-3-yl)methyl]-3-[(1S,2S)-2-hydroxycyclohexyl]-2-methylbenzo[h]quinazolin-4(3H)-one] | 1430 nM
7 | Cc1ccc(Cc2cc3c(=O)n([C@H]4CCCC[C@@H]4O)cnc3c3ccccc23)c[n+]1[O-] [Example 17, 3-[(1S,2S)-2-hydroxycyclohexyl]-6-[(6-methyl-1-oxidopyridin-3-yl)methyl]benzo[h]quinazolin-4(3H)-one] | 63 nM
8 | O=C1CCCCC1n1cnc2c(cc(Cc3ccc(Cl)nc3)c3ccccc32)c1=O (stereo not shown) [Example 10, 6-[(6-chloropyridin-3-yl)methyl]-3-(2-oxycyclohexyl)benzo[h]quinazolin-4(3H)-one] | 1300 nM
9 | COc1ccc(Cc2cc3c(=O)n(-c4cc(C)[nH]n4)cnc3c3ccccc23)cc1 [Example 3] | 1800 nM
10 | CC(=O)O[C@H]1CCCC[C@@H]1n1cnc2c(cc(Cc3ccc(Cl)nc3)c3ccccc32)c1=O (racemic) [Example 11, trans-2-[6-[(6-chloropyridin-3-yl)methyl]-4-oxobenzo[h]quinazolin-3(4H)-yl]cyclohexyl rac-acetate] | 3600 nM
11 | O=c1c2cc(Cc3ccccn3)c3ccccc3c2ncn1[C@H]1CCCC[C@@H]1O [Example 18, 3-[(1S,2S)-2-hydroxycyclohexyl]-6-(pyridin-2-ylmethyl)benzo[h]quinazolin-4(3H)-one] | 228 nM

Second part, the compound after the results:

Row | EC50 | Compound
12 | 93 nM | CS(=O)(=O)c1ccc(Cc2cc3c(=O)n([C@H]4CCCC[C@@H]4O)cnc3c3ccccc23)cn1 (racemic) [Example 8, rac-3-[trans-2-hydroxycyclohexyl]-6-{[6-methylsulfonyl)pyridine-3-yl]methyl}benzo[h]quinazolin-4(3H)-one]
13 | 24 nM | O=c1c2cc(Cc3ccc(CO)nc3)c3ccccc3c2ncn1[C@H]1CCCC[C@@H]1O (racemic) [Example 15, rac-3-[trans-2-hydroxycyclohexyl]-6-{[6-(hydroxymethyl)pyridine-3-yl]methyl}benzo[h]quinazolin-4(3H)-one]
14 | 84 nM | Cn1cc(Cc2cc3c(=O)n([C@H]4CCCC[C@@H]4O)cnc3c3ccccc23)ccc1=O (racemic) [Example 16, rac-3-[trans-2-hydroxycyclohexyl]-6-[(1-methyl-6-oxo-1,6-dihydropyridin-3-yl)methyl]benzo[h]quinazolin-4(3H)-one]
15 | 8 nM | Cn1cc(-c2ccc(Cc3cc4c(=O)n([C@H]5CCCC[C@@H]5O)cnc4c4ccccc34)cn2)cn1 (racemic) [Example 5, rac-3-[trans-2-hydroxycyclohexyl]-6-{[6-(1-methyl-1H-pyrazol-4-yl)pyridine-3-yl]methyl}benzo[h]quinazolin-4(3H)-one]
16 | 46 nM | CC(C)(O)c1ccc(Cc2cc3c(=O)n([C@H]4CCCC[C@@H]4O)cnc3c3ccccc23)cn1 [Example 14]
17 | 73 nM | COc1ccc(Cc2cc3c(=O)n([C@H]4CCCC[C@@H]4O)cnc3c3ccccc23)cn1 (racemic) [Example 9, rac-3-[trans-2-hydroxycyclohexyl]-6-[(6-methoxypyridin-3-yl)methyl]benzo[h]quinazolin-4(3H)-one]
18 | 21 nM | CC(C)c1ccc(Cc2cc3c(=O)n([C@H]4CCCC[C@@H]4O)cnc3c3ccccc23)cn1 [Example 13]
19 | 74 nM | N#Cc1ccc(Cc2cc3c(=O)n([C@H]4CCCC[C@@H]4O)cnc3c3ccccc23)cn1 (racemic) [Example 7, rac-5-({3-[trans-2-hydroxycyclohexyl]-4-oxo-3,4-dihydrobenzo[h]quinazolin-6-yl}methyl)pyridine-2-carbonitrile]
